Read-outs that look alike come from different tables or passages of the source.
Test: Single dose clinical study: plasma Compound A pharmacokinetics
Type: in vivo, human
Details: human, plasma, po, plasma
Procedure: This was a single center, single dose, randomized, double blind, placebo controlled study in healthy subjects. It consisted of 4 parts: Parts A, B, C, and D. Each of the four study parts had 2 phases: Prerandomization Phase and Randomization Phase. The Prerandomization Phase lasted up to 30 days and consisted of a Screening Period and a Baseline Period, during which each subject's study eligibility was determined and baseline assessments were performed.
In Part A, there were 8 sequential cohorts of healthy adult subjects (18-50 years of age). Subjects were randomly assigned to Compound A or placebo in a ratio of 6:2, respectively. Subjects in the Compound A cohorts were treated with single ascending doses of 10, 25, 50, 100, 200, 400, 800, or 1200 mg.
In Part B, there were 4 cohorts of healthy adult subjects (18-50 years of age). There were 8 subjects in Cohort 1, with 6 subjects randomly assigned to receive single doses of Compound A (400 mg) and 2 subjects randomly assigned to receive placebo. There were 7 subjects in Cohort 2 and Cohort 3, each with 6 subjects randomly assigned to receive single doses of Compound A (100 and 200 mg, respectively) and 1 subject randomly assigned to receive placebo. The dose of 100 mg selected in Cohort 2 was based on preliminary analysis of Cohort 1 data; this dose was predicted from PK/PD modeling to achieve a sustained CSF cGMP increase from baseline of approximately 200% when administered to steady state, and thereby provided a potentially therapeutic dose for further evaluation in future studies. There were 7 subjects in Cohort 4, with 6 subjects randomly assigned to receive a single dose of Compound A (50 mg [n=3] or 75 mg [n=3]) and 1 subject randomly assigned to receive placebo. The doses for Cohorts 3 and 4 were selected based on PK/PD modeling of the data in Cohorts 1 and 2.
Subjects in Cohort 2 who had received Compound A 100 mg or placebo under fasted conditions (1st Treatment Period) also participated in an evaluation of food effect on the PK of Compound A (2nd Treatment Period). After a washout period of at least 13 days (or 5 half-lives of Compound A, whichever was longer), subjects were admitted to the clinic for baseline assessments (2nd Baseline Period) and then received a single dose of the same treatment (Compound A 100 mg or placebo) after consuming a high fat and high calorie meal over 30 minutes. Blood PK samples were collected at prespecified time points. Safety evaluations were also assessed. CSF was not collected for PD evaluation during the 2nd Treatment Period. A Follow Up Visit occurred on Day 10 of Treatment Period 2.
In Part C, there was 1 cohort of 8 healthy elderly subjects (65 to 85 years of age) randomly assigned to receive a single dose of Compound A 100 mg or placebo in a ratio of 6:2, respectively.
In Part D, 3 cohorts of healthy adult Japanese subjects were randomized in parallel. There were 7 subjects in each cohort and subjects were randomly assigned to receive single doses of Compound A (25, 100, or 400 mg) or placebo in a ratio of 6:1, respectively.
Blood samples for determination of plasma Compound A concentrations were collected from predose to 216 hours postdose. On Day 1, blood PK samples were collected at predose and postdose 0.5 (30 minutes), 1, 1.5, 2, 3, 4, 5, 6, 8, 12, and 18 hours. Thereafter, samples were collected on Day 2 (24 and 36 hours postdose), Day 3 (48 hours postdose), Day 4 (72 hours postdose), Day 5 (96 hours postdose), Day 6 (120 hours postdose), Day 7 (144 hours postdose), and Day 10 (216 hours postdose).
Blood samples for determination of plasma Compound A concentrations were collected from predose to 216 hours postdose. For all cohorts, blood PK samples were collected on Day 1 at predose and postdose at 0.5 (30 minutes), 1, 1.5, 2, 3, 4, 5, 6, 8, 10, 12, and 18 hours. […]

For `COc1ncc(C)c(-c2ccc3c(c2)[nH]c(=O)c2cnn([C@H]4CCOC4)c23)c1C` [Compound A, (S)-7-(2-methoxy-3,5-dimethylpyridin-4-yl)-1-(tetrahydrofuran-3-yl)-1H-pyrazolo[4,3-c]quin olin-4(5H)-one], the Cmax (100 mg, Japanese Subjects (Part D), single oral 100 mg, read-out: Cmax GM (% CV)) was 0.492 µg/mL, the Vd/F (100 mg, Japanese Subjects (Part D), single oral 100 mg, read-out: Vz/F GM (% CV)) was 240 L and the half-life (100 mg, Japanese Subjects (Part D), single oral 100 mg, read-out: t1/2 Mean (SD) (converted)) was 23.9 h. It also gave a Tmax (100 mg, Japanese Subjects (Part D), single oral 100 mg, read-out: tmax Median) of 2.52 h, an AUC(0-inf) (100 mg, Non-Japanese Subjects (Parts A,B), single oral 100 mg, read-out: AUC(0-inf) GM) of 15 µg·h/mL and a Cmax (100 mg, Non-Japanese Subjects (Parts A,B), single oral 100 mg, read-out: Cmax GM (% CV)) of 0.373 µg/mL. It also gave a Vd/F (100 mg, Non-Japanese Subjects (Parts A,B), single oral 100 mg, read-out: Vz/F GM (% CV)) of 268 L, a half-life (100 mg, Non-Japanese Subjects (Parts A,B), single oral 100 mg, read-out: t1/2 Mean (SD) (converted)) of 28.6 h and a Tmax (100 mg, Non-Japanese Subjects (Parts A,B), single oral 100 mg, read-out: tmax Median) of 2.99 h. The AUC(0-t) (100 mg, Part B 100 mg cohort, single oral 100 mg, Fasted, read-out: AUC (0-24 h) GM (% CV)) was 6.14 µg·h/mL, the AUC(0-t) (100 mg, Part B 100 mg cohort, single oral 100 mg, Fasted, read-out: AUC (0-30 h) GM (% CV)) was 7.36 µg·h/mL and the AUC(0-t) (100 mg, Part B 100 mg cohort, single oral 100 mg, Fasted, read-out: AUC (0-72 h) GM (% CV)) was 12.2 µg·h/mL. The AUC(0-inf) (100 mg, Part B 100 mg cohort, single oral 100 mg, Fasted, read-out: AUC (0-inf) GM (% CV)) was 14.5 µg·h/mL, the AUC(0-t) (100 mg, Part B 100 mg cohort, single oral 100 mg, Fasted, read-out: AUC (0-t) GM (% CV)) was 14.4 µg·h/mL and the Cmax (100 mg, Part B 100 mg cohort, single oral 100 mg, Fasted, read-out: Cmax GM (%CV)) was 0.371 µg/mL. It also gave a Vd/F (100 mg, Part B 100 mg cohort, single oral 100 mg, Fasted, read-out: Vz/F GM (% CV)) of 252 L, a half-life (100 mg, Part B 100 mg cohort, single oral 100 mg, Fasted, read-out: t1/2 Mean (SD) (converted)) of 25.7 h and a Tmax (100 mg, Part B 100 mg cohort, single oral 100 mg, Fasted, read-out: tmax Median (Min, Max)) of 2.99 h. It also gave an AUC(0-t) (100 mg, Part B 100 mg cohort, single oral 100 mg, Fed (high-fat meal), read-out: AUC (0-24 h) GM (% CV)) of 7.61 µg·h/mL, an AUC(0-t) (100 mg, Part B 100 mg cohort, single oral 100 mg, Fed (high-fat meal), read-out: AUC (0-30 h) GM (% CV)) of 8.98 µg·h/mL and an AUC(0-t) (100 mg, Part B 100 mg cohort, single oral 100 mg, Fed (high-fat meal), read-out: AUC (0-72 h) GM (% CV)) of 14.5 µg·h/mL. For the same compound, the AUC(0-inf) (100 mg, Part B 100 mg cohort, single oral 100 mg, Fed (high-fat meal), read-out: AUC (0-inf) GM (% CV)) was 17.3 µg·h/mL, the AUC(0-t) (100 mg, Part B 100 mg cohort, single oral 100 mg, Fed (high-fat meal), read-out: AUC (0-t) GM (% CV)) was 17.1 µg·h/mL and the Cmax (100 mg, Part B 100 mg cohort, single oral 100 mg, Fed (high-fat meal), read-out: Cmax GM (%CV)) was 0.536 µg/mL. The Vd/F (100 mg, Part B 100 mg cohort, single oral 100 mg, Fed (high-fat meal), read-out: Vz/F GM (% CV)) was 212 L, the half-life (100 mg, Part B 100 mg cohort, single oral 100 mg, Fed (high-fat meal), read-out: t1/2 Mean (SD) (converted)) was 26 h and the Tmax (100 mg, Part B 100 mg cohort, single oral 100 mg, Fed (high-fat meal), read-out: tmax Median (Min, Max)) was 3.49 h. For the same compound, the AUC(0-t) (100 mg, healthy adults (Parts A,B), single oral 100 mg, fasted, read-out: AUC(0-24 h) GM) was 5.73 µg·h/mL, the AUC(0-t) (100 mg, healthy adults (Parts A,B), single oral 100 mg, fasted, read-out: AUC(0-30 h) GM) was 6.89 µg·h/mL and the AUC(0-t) (100 mg, healthy adults (Parts A,B), single oral 100 mg, fasted, read-out: AUC(0-72 h) GM) was 11.9 µg·h/mL. The AUC(0-inf) (100 mg, healthy adults (Parts A,B), single oral 100 mg, fasted, read-out: AUC(0-inf) GM) was 15 µg·h/mL, the AUC(0-t) (100 mg, healthy adults (Parts A,B), single oral 100 mg, fasted, read-out: AUC(0-t) GM) was 14.8 µg·h/mL and the Cmax (100 mg, healthy adults (Parts A,B), single oral 100 mg, fasted, read-out: Cmax GM) was 0.373 µg/mL. The Vd/F (100 mg, healthy adults (Parts A,B), single oral 100 mg, fasted, read-out: Vz/F GM) was 268 L, the half-life (100 mg, healthy adults (Parts A,B), single oral 100 mg, fasted, read-out: t1/2 Mean (converted)) was 28.6 h and the Tmax (100 mg, healthy adults (Parts A,B), single oral 100 mg, fasted, read-out: tmax Median) was 2.99 h. For the same compound, the AUC(0-inf) (100 mg, healthy elderly subjects (Part C), single oral 100 mg, read-out: AUC (0-inf) GM (% CV)) was 21.3 µg·h/mL, the Cmax (100 mg, healthy elderly subjects (Part C), single oral 100 mg, read-out: Cmax GM (% CV)) was 0.543 µg/mL and the Vd/F (100 mg, healthy elderly subjects (Part C), single oral 100 mg, read-out: Vz/F GM (% CV)) was 253 L. For the same compound, the half-life (100 mg, healthy elderly subjects (Part C), single oral 100 mg, read-out: t1/2 Mean (SD) (converted)) was 38.1 h, the Tmax (100 mg, healthy elderly subjects (Part C), single oral 100 mg, read-out: tmax Median (Min, Max)) was 2.6 h and the AUC(0-t) (200 mg, healthy adults (Parts A,B), single oral 200 mg, fasted, read-out: AUC(0-24 h) GM) was 7.8 µg·h/mL. It also gave an AUC(0-t) (200 mg, healthy adults (Parts A,B), single oral 200 mg, fasted, read-out: AUC(0-30 h) GM) of 9.44 µg·h/mL, an AUC(0-t) (200 mg, healthy adults (Parts A,B), single oral 200 mg, fasted, read-out: AUC(0-72 h) GM) of 16.8 µg·h/mL and an AUC(0-inf) (200 mg, healthy adults (Parts A,B), single oral 200 mg, fasted, read-out: AUC(0-inf) GM) of 22.4 µg·h/mL. It also gave an AUC(0-t) (200 mg, healthy adults (Parts A,B), single oral 200 mg, fasted, read-out: AUC(0-t) GM) of 22 µg·h/mL, a Cmax (200 mg, healthy adults (Parts A,B), single oral 200 mg, fasted, read-out: Cmax GM) of 0.539 µg/mL and a Vd/F (200 mg, healthy adults (Parts A,B), single oral 200 mg, fasted, read-out: Vz/F GM) of 384 L. The half-life (200 mg, healthy adults (Parts A,B), single oral 200 mg, fasted, read-out: t1/2 Mean (converted)) was 30.9 h, the Tmax (200 mg, healthy adults (Parts A,B), single oral 200 mg, fasted, read-out: tmax Median) was 2 h and the AUC(0-inf) (400 mg, Japanese Subjects (Part D), single oral 400 mg, read-out: AUC(0-inf) GM) was 46.5 µg·h/mL. The Cmax (400 mg, Japanese Subjects (Part D), single oral 400 mg, read-out: Cmax GM (% CV)) was 1.18 µg/mL, the Vd/F (400 mg, Japanese Subjects (Part D), single oral 400 mg, read-out: Vz/F GM (% CV)) was 364 L and the half-life (400 mg, Japanese Subjects (Part D), single oral 400 mg, read-out: t1/2 Mean (SD) (converted)) was 30 h. The Tmax (400 mg, Japanese Subjects (Part D), single oral 400 mg, read-out: tmax Median) was 2.25 h.

Reference: US20220378706A1, “PHARMACEUTICAL COMPOSITION COMPRISING PDE9 INHIBITOR” (Eisai R&D Management Co., Ltd., priority 2017, published 2022)
